Source: US8765779B2, “Tricyclic derivatives and their pharmaceutical use and compositions” (Cephalon, Inc., priority 2009, dated 2014)
Structures can show the parent of a compound that is named as a salt.

melting point | SMILES
203 to 204 °C | N#Cc1ccc(COc2cccc(S(=O)(=O)c3ccc4c(c3)OC3CNCCC43)c2)cc1 (stereo not drawn) (as salt: HCl) [Example 551]
184 to 186 °C | O=S(=O)(c1cccc(OC2CCOCC2)c1)c1ccc2c(c1)OC1CNCCC21 (stereo not drawn) (as salt: HCl) [Example 571]
207 to 208 °C | COc1cc(OCC2CCOCC2)cc(S(=O)(=O)c2ccc3c(c2)OC2CNCCC32)c1 (stereo not drawn) (as salt: HCl) [Example 584]
179 to 181 °C | COCCCOc1cccc(S(=O)(=O)c2ccc3c(c2)OC2CNCCC32)c1 (stereo not drawn) (as salt: HCl) [Example 576]
234 to 236 °C | O=S(=O)(c1cccc(Oc2cnccn2)c1)c1ccc2c(c1)OC1CNCCC21 (stereo not drawn) (as salt: HCl) [Example 580]
233 to 234 °C | O=S(=O)(c1cccc(OCCn2cccc2)c1)c1ccc2c(c1)OC1CNCCC21 (stereo not drawn) (as salt: HCl) [Example 573]
210 to 213 °C | COCCOc1cccc(S(=O)(=O)c2ccc3c(c2)OC2CNCCC32)c1 (stereo not drawn) (as salt: HCl) [Example 558]
224 to 225 °C | COc1cc(OCC2CC2)cc(S(=O)(=O)c2ccc3c(c2)OC2CNCCC32)c1 (stereo not drawn) (as salt: HCl) [Example 585]
188 to 190 °C | O=S(=O)(c1cccc(OCC2CCOCC2)c1)c1ccc2c(c1)OC1CNCCC21 (stereo not drawn) (as salt: HCl) [Example 570, 7-{[3-(tetrahydro-2H-pyran-4-ylmethoxy)phenyl]sulfonyl}-1,2,3,4,4a,9a-hexahydro[1]benzofuro[2,3-c]pyridine]
205 to 208 °C | Cc1nc(COc2cccc(S(=O)(=O)c3ccc4c(c3)OC3CNCCC43)c2)cs1 (stereo not drawn) (as salt: HCl) [Example 569]
206 to 209 °C | O=S(=O)(c1cccc(OCCCO)c1)c1ccc2c(c1)OC1CNCCC21 (stereo not drawn) (as salt: HCl) [Example 568]

More lines, now with the values behind:

SMILES | melting point
Cc1ccnc(S(=O)(=O)c2ccc3c(c2)OC2CNCCC32C)n1 (racemic) (as salt: HCl) [Example 7, 4a-methyl-7-[(4-methylpyrimidin-2-yl)sulfonyl]-1,2,3,4,4a,9a-hexahydro[1]benzofuro[2,3-c]pyridine] | 199 to 201 °C
CC1OCCC12NCCc1c2oc2cc(S(=O)(=O)c3cccc(F)c3)ccc12 (single isomer, unassigned) (as salt: HCl) [Example 60, 7-[(3-Fluorophenyl)sulfonyl]-2′-methyl-3,4,4′,5′-tetrahydro-2H-spiro[1-benzofuro[2,3-c]pyridine-1,3′-furan]] | 298 to 301 °C (dec.)
O=S(=O)(c1cccc(F)c1)c1ccc2c3c(oc2c1)C1(CCC1)NCC3 (as salt: HCl) [Example 25, 7-[(3-fluorophenyl)sulfonyl]-3,4-dihydro-2H-spiro[1-benzofuro[2,3-c]pyridine-1,1′-cyclobutane]] | > 200 °C (dec.)
COc1cccc(S(=O)(=O)c2ccc3c(c2)OC2CNCCC32C)c1 (racemic) (as salt: HCl) [Example 4, 7-[(3-methoxyphenyl)sulfonyl]-4a-methyl-1,2,3,4,4a,9a-hexahydro[1]benzofuro[2,3-c]pyridine] | 279 to 280 °C
COCC1(COC)NCCc2c1oc1cc(S(=O)(=O)c3cccc(F)c3)ccc21 (as salt: HCl) [Example 39, 7-[(3-fluorophenyl)sulfonyl]-1,1-bis(methoxymethyl)-1,2,3,4-tetrahydro[1]benzofuro[2,3-c]pyridine] | 196 to 198 °C
CCOc1cccc(S(=O)(=O)c2ccc3c(c2)OC2CNCCC32C)c1 (racemic) (as salt: HCl) [Example 10, 7-[(3-ethoxyphenyl)sulfonyl]-4a-methyl-1,2,3,4,4a,9a-hexahydro[1]benzofuro[2,3-c]pyridine] | 271 to 273 °C
CC12CCNCC1Oc1ccc(S(=O)(=O)c3ccncc3)cc12 (racemic) (as salt: HCl) [Example 13, 4a-methyl-6-(pyridin-4-ylsulfonyl)-1,2,3,4,4a,9a-hexahydro[1]benzofuro[2,3-c]pyridine] | 186 to 188 °C
CC(C)CC1(C)NCCc2c1oc1cc(S(=O)(=O)c3cccc(F)c3)ccc21 (racemic) (as salt: HCl) [Example 36, 7-[(3-fluorophenyl)sulfonyl]-1-methyl-1-(2-methylpropyl)-1,2,3,4-tetrahydro[1]benzofuro[2,3-c]pyridine] | 284 to 286 °C
CC12CCNCC1Oc1ccc(S(=O)(=O)c3cc[n+]([O-])cc3)cc12 (racemic) (as salt: HCl) [Example 14, 4a-methyl-6-[(1-oxidopyridin-4-yl)sulfonyl]-1,2,3,4,4a,9a-hexahydro[1]benzofuro[2,3-c]pyridine] | 207 to 210 °C
O=S(=O)(c1cccc(OCC2CCOCC2)c1)c1ccc2c(c1)OC1CNCCC21 (single isomer, unassigned) (as salt: HCl) [Example 548, 7-{[3-(Tetrahydro-2H-pyran-4-ylmethoxy)phenyl]sulfonyl}-1,2,3,4,4a,9a-hexahydro[1]benzofuro[2,3-c]pyridine] | 187 to 189 °C
CC12CCNCC1Oc1ccc(S(=O)(=O)c3ccccc3)cc12 (stereo not drawn) (as salt: hydrochloride) [Example 62, 4a-Methyl-6-(phenylsulfonyl)-1,2,3,4,4a,9a-hexahydro[1]benzofuro[2,3-c]pyridine hydrochloride] | 236 to 238 °C (dec.)
CC(=O)N1CCC2(CC1)NCCc1c2oc2cc(S(=O)(=O)c3cccc(F)c3)ccc12 (as salt: HCl) [Example 41, 1-{7-[(3-fluorophenyl)sulfonyl]-3,4-dihydro-1′H,2H-spiro[1-benzofuro[2,3-c]pyridine-1,4′-piperidin]-1′-yl}ethanone] | 256 °C (dec.)
CC1(C)CNC2(CCOC2)c2oc3cc(S(=O)(=O)c4cccc(F)c4)ccc3c21 (racemic) (as salt: HCl) [Example 46, 7-[(3-fluorophenyl)sulfonyl]-4,4-dimethyl-3,4,4′,5′-tetrahydro-2H-spiro[1-benzofuro[2,3-c]pyridine-1,3′-furan]] | 263 to 268 °C
COc1cc(OC)cc(S(=O)(=O)c2ccc3c(c2)OC2CNCCC32)c1 (stereo not drawn) (as salt: HCl) [Example 480] | 248 to 251 °C
CN(C)C(=O)c1c(F)cccc1S(=O)(=O)c1ccc2c3c(oc2c1)CNCC3 (as salt: HCl) [Example 479] | 245 to 248 °C
COc1cc(OC)cc(S(=O)(=O)c2ccc3c(c2)OC2CNCCC32C)c1 (stereo not drawn) (as salt: HCl) [Example 487] | 283 to 285 °C
Cc1cccc(S(=O)(=O)c2ccc3c4c(oc3c2)C(C)(C)NCC4)n1 (as salt: HCl) [Example 19, 1,1-dimethyl-7-[(6-methylpyridin-2-yl)sulfonyl]-1,2,3,4-tetrahydro[1]benzofuro[2,3-c]pyridine] | 305 to 310 °C
O=S(=O)(c1cccc(F)c1)c1ccc2c3c(oc2c1)C(CF)(CF)NCC3 [Example 35, 1,1-bis(fluoromethyl)-7-[(3-fluorophenyl)sulfonyl]-1,2,3,4-tetrahydro[1]benzofuro[2,3-c]pyridine] | 154 to 157 °C
COc1cccc(S(=O)(=O)c2ccc3c4c(oc3c2)C(C)(C)NCC4)c1 (as salt: HCl) [Example 16, 7-[(3-methoxyphenyl)sulfonyl]-1,1-dimethyl-1,2,3,4-tetrahydro[1]benzofuro[2,3-c]pyridine] | 335 °C (dec.)
